Results published in US7449478B2, “Indole compounds” (National Health Research Institutes, priority 2003, dated 2008).

Tested on: PPAR
Assay: PPAR agonist activity / binding to PPAR, tetraethylthiuram disulfide alone or combined
Details: tetraethylthiuram disulfide alone

`CCN(CC)C(=S)SSC(=S)N(CC)CC` [tetraethylthiuram disulfide] was tested, and the PPAR agonist activity was “poor PPAR agonist”.
